These results are taken from US20100137313A1 (ASTRAZENECA AB, priority 2008, published 2010).

The target of this assay is S. pneumoniae Topoisomerase IV ATPase (ParE) (Streptococcus pneumoniae serotype 4, UniProt Q59961). The experiment in a line: S. pneumoniae Topoisomerase IV ATPase inhibition. The format is biochemical. Conditions: values marked * are an average of two or more data points, read-out: % Inh (13 μM) of S. pneumoniae Topoisomerase IV ATPase. The procedure: S. pneumoniae Topoisomerase IV ATPase Inhibition Activity: Compounds may be tested for inhibition of S. pneumoniae ParE ATPase activity using an ammonium molybdate/malachite green-based phosphate detection assay (Lanzetta, P. A., L. J. Alvarez, P. S. Reinach, and O. A. Candia, 1979, 100: 95-97). Assays are performed in multiwell plates in 30 μl reactions containing: 20 mM Tris buffer pH 8.0, 50 mM ammonium acetate, 8.0 mM magnesium chloride, 0.5 mM ethylenediaminetetraacetic acid, 5% glycerol, 5 mM 1,4-Dithio-DL-threitol, 0.005% Brij-35, 5 μg/ml sheared salmon sperm DNA, 1.25 nM S. pneumoniae ParE, 160 μM ATP, and test compound in dimethylsulfoxide. Reactions are quenched with 30 μl of ammonium molybdate/malachite green detection reagent containing 1.2 mM malachite green hydrochloride, 8.5 mM ammonium molybdate tetrahydrate, and 1 M hydrochloric acid. Plates are read in an absorbance plate reader at 650 nm and percent inhibition values are calculated using dimethylsulfoxide (2%)-containing reactions as 0% inhibition and EDTA-containing ([…]) reactions as 100% inhibition controls. An IC50 measurement of compound potency for each compound can be determined from reactions performed in the presence of 10 different compound concentrations.
S. pneumoniae Topoisomerase IV ATPase (ParE), sequence (Q59961 whole entry): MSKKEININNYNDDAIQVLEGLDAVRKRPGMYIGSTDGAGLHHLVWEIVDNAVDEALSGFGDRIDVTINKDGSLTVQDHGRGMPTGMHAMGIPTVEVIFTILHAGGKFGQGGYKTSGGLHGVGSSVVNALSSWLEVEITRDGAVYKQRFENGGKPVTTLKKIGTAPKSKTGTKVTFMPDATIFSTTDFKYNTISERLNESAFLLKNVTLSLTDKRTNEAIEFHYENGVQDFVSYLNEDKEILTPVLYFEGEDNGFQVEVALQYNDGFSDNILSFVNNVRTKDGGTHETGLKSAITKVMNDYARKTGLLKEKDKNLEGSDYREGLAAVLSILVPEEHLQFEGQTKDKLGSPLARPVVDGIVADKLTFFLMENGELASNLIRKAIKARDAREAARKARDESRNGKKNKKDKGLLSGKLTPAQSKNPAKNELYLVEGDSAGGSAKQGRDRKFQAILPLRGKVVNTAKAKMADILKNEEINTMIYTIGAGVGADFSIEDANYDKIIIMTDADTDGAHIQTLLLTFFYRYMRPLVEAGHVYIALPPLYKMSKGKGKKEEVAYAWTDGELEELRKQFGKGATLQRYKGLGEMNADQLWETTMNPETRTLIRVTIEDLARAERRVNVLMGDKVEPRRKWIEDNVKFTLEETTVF
Many of the compounds of the invention were tested in an assay substantially similar to the assays described above for measuring the inhibition of E.coli GyrB ATPase, E. coli Topoisomerase IV ATPase, S. aureus GyrB ATPase, and S. pneumoniae Topoisomerase IV ATPase, and had IC50 values of <200 μM in one or more assays.
Take `COc1cc(Nc2ncc(-c3cccc(/C=C/C(=O)O)c3)c(NCCc3ccncc3)n2)cc(OC)c1` [Example 353, (E)-3-(3-(2-(3,5-dimethoxyphenyl-amino)-4-(2-(pyridin-4-yl)ethylamino)pyrimidin-5-yl)phenyl) acrylic acid]: the inhibition at 13 µM amounted to 83.9%.

Regarding `Cn1cncc1CNc1nc(Nc2ccc(F)c(Cl)c2)ncc1-c1cccc(/C=C/C(=O)O)c1` [Example 296, (E)-3-(3-(2-(3-chloro-4-fluorophenylamino)-4-((1-methyl-1H-imidazol-5-yl)methylamino)pyrimidin-5-yl)phenyl)acrylic acid], the inhibition at 13 µM amounted to 77.6%.

As for `CCC(C)Nc1nc(Nc2ccc(F)c(Cl)c2)ncc1-c1ccc(Cl)c(NC(=O)OC(C)(C)C)c1` (stereo not shown) [Example 1110, tert-butyl N-[5-[4-(butan-2-ylamino)-2-[(3-chloro-4-fluorophenyl)amino]pyrimidin-5-yl]-2-chlorophenyl]carbamate], the inhibition at 13 µM is 99%.

As for `COc1cc(C)cc(Nc2ncc(-c3cnc(OC)c(-c4n[nH]c(=O)o4)c3)c(-n3nc(C(F)(F)F)cc3C)n2)c1` [Example 1170, 5-(2-methoxy-5-{2-[(3-methoxy-5-methylphenyl)amino]-4-[5-methyl-3-(trifluoromethyl)-1H-pyrazol-1-yl]pyrimidin-5-yl}pyridin-3-yl)-1,3,4-oxadiazol-2(3H)-one], the inhibition at 13 µM amounted to 100%.

In the case of `COc1cc(Nc2ncc(-c3cnc(OC)nc3)c(N3CC(C)OC(C)C3)n2)cc(C(F)(F)F)c1` (stereo not shown) [Example 349, 4-(2,6-dimethylmorpholino)-2′-methoxy-N-(3-methoxy-5-(trifluoromethyl)phenyl)-5,5′-bipyrimidin-2-amine], the inhibition at 13 µM was found to be 83.6%.

As for `COc1cc(CNc2nc(Nc3ccc(F)c(Cl)c3)ncc2-c2cnc(OC)nc2)cc(OC)c1` [Example 464, N2-(3-chloro-4-fluorophenyl)-N4-(3,5-dimethoxybenzyl)-2′-methoxy-5,5′-bipyrimidin-2,4-diamine], the inhibition at 13 µM was determined as 36%.

`CCOC(=O)c1cncc(-c2cnc(Nc3ccc(F)c(Cl)c3)nc2NCCOC(C)C)c1` [Example 109, ethyl 5-[2-[(3-chloro-4-fluorophenyl)amino]-4-(2-propan-2-yloxyethylamino)pyrimidin-5-yl]pyridine-3-carboxylate]: the inhibition at 13 µM came out at 52.4%.

With `CNC(=O)c1cc(-c2cnc(Nc3cc(OC)cc(OC)c3)nc2-n2ccc(C(F)(F)F)n2)cnc1OC` [Example 809, 5-{2-[(3,5-dimethoxyphenyl)amino]-4-[3-(trifluoromethyl)-1H-pyrazol-1-yl]pyrimidin-5-yl}-2-methoxy-N-methylpyridine-3-carboxamide], the inhibition at 13 µM is 100%.

For `O=C(O)c1cc(-c2cnc(Nc3ccc(F)c(Cl)c3)nc2-n2ccc(C(F)(F)F)n2)cnc1NCCN1CCOCC1` [Example 1077, 5-(2-(3-Chloro-4-fluorophenylamino)-4-(3-(trifluoromthyl)-1H-pyrazol-1-yl)pyrimidin-5-yl)-2-(2-morpholinoethylamino)nicotinic acid], the inhibition at 13 µM is 99%.

For the compound `CC(=O)Nc1ccn(-c2nc(Nc3ccc(F)c(Cl)c3)ncc2-c2cncc(C(N)=O)c2)n1` [Example 541, 5-{4-[3-(acetylamino)-1H-pyrazol-1-yl]-2-[(3-chloro-4-fluorophenyl)amino]pyrimidin-5-yl}pyridine-3-carboxamide], the inhibition at 13 µM is 97%.

For the compound `O=C(O)c1cccc(-c2cnc(Nc3ccc(F)c(Cl)c3)nc2-n2ccc(C(F)(F)F)n2)c1` [Example 570, 3-(2-(3-chloro-4-fluorophenylamino)-4-(3-(trifluoromethyl)-1H-pyrazol-1-yl)pyrimidin-5-yl)benzoic acid], the inhibition at 13 µM stood at 91%.

For `COC1CCN(c2nc(Nc3ccc(F)c(Cl)c3)ncc2-c2cncc(C(=O)O)c2)CC1` [Example 249, 5-[2-[(3-chloro-4-fluorophenyl)amino]-4-(4-methoxypiperidin-1-yl)pyrimidin-5-yl]pyridine-3-carboxylic acid], the inhibition at 13 µM was 70.8%.

With `COc1cc(Nc2ncc(-c3cnc(OCCCS(C)(=O)=O)c(C(=O)NS(=O)(=O)C(F)(F)F)c3)c(-n3ccc(C(F)(F)F)n3)n2)cc(OC)c1` [Example 972, 5-(2-(3,5-dimethoxyphenylamino)-4-(3-(trifluoromethyl)-1H-pyrazol-1-yl)pyrimidin-5-yl)-2-(3-(methylsulfonyl)propoxy)-N-(trifluoromethylsulfonyl)nicotinamide], the inhibition at 13 µM came out at 100%.

`COc1cc(Cl)cc(Nc2ncc(-c3cncc(C(=O)O)c3)c(-n3ccc(C(F)(F)F)n3)n2)c1` [Example 774, 5-{2-[(3-chloro-5-methoxyphenyl)-amino]-4-[3-(trifluoromethyl)-1H-pyrazol-1-yl]pyrimidin-5-yl}pyridine-3-carboxylic acid]: the inhibition at 13 µM worked out at 100%.

For the compound `CONC(=O)/C=C/c1cccc(-c2cnc(Nc3ccc(F)c(Cl)c3)nc2N2CCOCC2)c1` [Example 376, (E)-3-(3-(2-(3-chloro-4-fluorophenylamino)-4-morpholinopyrimidin-5-yl)phenyl)-N-methoxyacrylamide], the inhibition at 13 µM was found to be 87.2%.

Take `CC(=O)Nc1ccn(-c2nc(Nc3ccc(F)c(Cl)c3)ncc2-c2cncc(C(=O)O)c2)n1` [Example 534, 5-{4-[3-(acetylamino)-1H-pyrazol-1-yl]-2-[(3-chloro-4-fluorophenyl)amino]pyrimidin-5-yl}pyridine-3-carboxylic acid]: the inhibition at 13 µM came to 49%.

As for `COCCCNc1nc(Nc2ccc(F)c(Cl)c2)ncc1-c1ccc2[nH]c(C(=O)O)cc2c1` [Example 1062, 5-(2-(3-chloro-4-fluorophenylamino)-4-(3-methoxypropylamino)pyrimidin-5-yl)-1H-indole-2-carboxylic acid], the inhibition at 13 µM worked out at 91%.

With `CONC(=O)c1cncc(-c2cnc(Nc3ccc(F)c(Cl)c3)nc2-n2nc(-c3nccs3)cc2C)c1` [Example 545, 5-{2-[(3-chloro-4-fluorophenyl)amino]-4-[5-methyl-3-(1,3-thiazol-2-yl)-1H-pyrazol-1-yl]pyrimidin-5-yl}-N-methoxypyridine-3-carboxamide], the inhibition at 13 µM came out at 100%.

On to `N#Cc1cc(Cl)cc(Nc2ncc(-c3cncc(C(=O)O)c3)c(N3CCOCC3)n2)c1` [Example 392, 5-[2-(3-Chloro-5-cyano-phenylamino)-4-morpholin-4-yl-pyrimidin-5-yl]-nicotinic acid], for which the inhibition at 13 µM is 74%.

As to `COc1cc(Nc2ncc(-c3cccc(/C=C/C(=O)O)c3)c(N3CCOCC3)n2)cc([N+](=O)[O-])c1` [Example 453], the inhibition at 13 µM was 92%.

For the compound `COc1cc(Nc2ncc(-c3cncc(C(=O)NS(C)(=O)=O)c3)c(-n3ccc(C(F)(F)F)n3)n2)cc(OC)c1` [Example 686, 5-{2-[(3,5-dimethoxyphenyl)amino]-4-[3-(trifluoromethyl)-1H-pyrazol-1-yl]pyrimidin-5-yl}-N-(methylsulfonyl)pyridine-3-carboxamide], the inhibition at 13 µM was found to be 100%.

Consider `Cn1cc(-c2cnc(Nc3ccc(F)c(Cl)c3)nc2-n2ccc(C(F)(F)F)n2)cc(C(=O)NS(C)(=O)=O)c1=O` [Example 1048, 5-(2-(3-Chloro-4-fluorophenylamino)-4-(3-(trifluoromethyl)-1H-pyrazol-1-yl)pyrimidin-5-yl)-1-methyl-N-(methylsulfonyl)-2-oxo-1,2-dihydropyridine-3-carboxamide], for which the inhibition at 13 µM turned out to be 100%.
